Source: US20240279641A1, “Structural Neuroplasticity Enhancer Screen” (Northwestern University, priority 2021, published 2024)

Key:
Type in all cases: cell-based, mouse
cFos = experiment: Western blot analysis of forskolin stimulation in cell culture: cFos; settings: 1 μM forskolin vs 0.1% DMSO, normalized band signal, n=3, adj. p=0.0462
Method: (§1) For initial 384-well plate set up and western blot validation, forskolin (from 25 mM DMSO stock) was used as a positive control and DMSO was used as a vehicle control. For example, at 25 and 2.5 μM forskolin (0.1%, 0.01% DMSO), the corresponding vehicle control was 0.1% and 0.01% DMSO, respectively. Media was changed to NB-27 containing pharmacological agents (concentration specified in figure legends) and processed as described in each section 16 hrs after treatment.
(§2) Cell pellets were sonicated in NP40 lysis buffer (1% NP40, 150 mM NaCl, 50 mM Tris, pH 8, 1× Halt). Proteins were separated in 12% Tris-glycine gels and transferred to nitrocellulose membrane (Cat. No. 926-31090, LI-COR, NE, USA). Blots were briefly rinsed with TBS. Total protein was detected using REVERT 700 according to the manufacturer instructions. For detecting individual proteins, unless specified, blots were blocked with 5% milk-containing TBST (0.1% Tween20) for 1 hr at RT. Primary antibodies were added in the same blocking buffer for overnight incubation (1:1,000 rabbit RFP, Rockland, Cat. No., 600-401-379-RTU, and 1:1,000 mouse Psd95 Biolegend Cat. Nol, 810401)). […] All quantification was performed using LI-COR Image Studio version 5.2. For densitometry quantification, band signals were normalized to total protein stain in each blot using the equation below. […]

Psd95 = experiment: Western blot analysis of forskolin stimulation in cell culture: Psd95; settings: 1 μM forskolin vs 0.1% DMSO, normalized band signal, n=3, adj. p=1
Method: as §1, §2

NanoLuc = experiment: Western blot analysis of forskolin stimulation in cell culture: NanoLuc (RFP); settings: 1 μM forskolin vs 0.1% DMSO, normalized band signal, n=3, adj. p=0.324
Method: as §1, §2

primary cortical neurons = experiment: Western blot of biotinylation by TurboID constructs in cortical neurons; settings: 55 mM KCl
Method: (§3) Animals were handled according to protocols approved by the Northwestern University Animal Care and Use Committee. Cortical neurons were harvested from mouse embryos euthanized at embryonic day 18 and plated in poly-D-lysine coated plates. Embryonic brains were dissected in ice-cold dissection media (Hank's balance salt solution HBSS, 2% penicillin-streptomycin, 20 mM HEPES). Meninges were removed from each brain and cortices were dissected out. The cortices were chopped into small pieces using a microscissors and pooled in 5 mL dissection media containing 0.25% trypsin and 0.1% DNasel and trypsinised at 37° ° C. for 20-25 min. Cortices were washed twice with warm dissection media, and once with warm plating medium (MEM, supplemented with 10% heat-inactivated horse serum, 0.6% glucose, 1 mM Na pyruvate, 1% Glutamax, 1% penicillin-streptomycin) for 5 min each. Tissues were titurated in 3 mL fresh plating medium with unpolished and, subsequently, polished glass Pasteur pipettes. […]
Cell pellets were sonicated in NP40 lysis buffer (1% NP40, 150 mM NaCl, 50 mM Tris, pH 8, 1× Halt). […] Total protein was detected using REVERT 700 according to the manufacturer instructions. […] All quantification was performed using LI-COR Image Studio version 5.2. For densitometry quantification, band signals were normalized to total protein stain in each blot using the equation below.

[1] = test system: primary hippocampal and cortical neurons; experiment: SARE-ArcMin-luciferase-PSD95-mVenus luciferase assay in primary neuronal cultures, 96-well; settings: hippocampal vs cortical primary cultures, 96-well plate
Method: as §3, with “pipettes. 1 k, 80 k, 150 k, 2500 k cells were seeded in 384-well, 12-well, 6-well plates, 10-cm dishes, respectively.” for “pipettes.”
Luciferase substrate systems were prepared according to the Manufacturer's instructions. […] Plates were read by Biotek Syngery Neo2 plate reader. […]

Compound: C=C[C@@]1(C)CC(=O)[C@]2(O)[C@@]3(C)[C@@H](O)CCC(C)(C)[C@@H]3[C@H](O)[C@H](OC(C)=O)[C@@]2(C)O1 [forskolin]
- cFos expression, FSK−DMSO (cFos): 3.232±0.769
- Psd95 expression, FSK−DMSO (Psd95): −0.048±0.1131
- NanoLuc expression, FSK−DMSO (NanoLuc): 0.583±0.267

Compound: [Cl-].[K+] [KCl]
- biotin-labelling after induction of neuronal activity (primary cortical neurons): enhanced biotin-labelling

Compound: CNC1(c2ccccc2Cl)CCCCC1=O (stereo not drawn) [Ketamine]
- dose-response of luciferase activity, construct (1) [1]: dose-response is cell-type specific

Compound: COc1ccc(-c2ccc(=N)n(CCCC(=O)O)n2)cc1 [Gabazine]
- dose-response of luciferase activity, construct (1) [1]: dose-response is cell-type specific
